Consider one compound from PMC13441234 (2025).

The test system of assay [1] is Phenylalanine aptamer (on 8 nm SiO2 blocking layer) (DNA, aptamer) CGACCGCGTTTCCCAAGAAAGCAAGTATTGGTTGGTCG
The assay is described as follows: square wave voltammetry, electrochemical aptamer sensor. Particulars: 1x PBS, room temperature, 300 Hz, 50 mV amplitude, apparent, immobilised aptamer, n = 3 electrodes.

Assay [2] concerns Phenylalanine aptamer (on gold with alkylthiolate/MCH blocking layer) (DNA, aptamer) CGACCGCGTTTCCCAAGAAAGCAAGTATTGGTTGGTCG
The description is as above. Particulars: 1x PBS (cation concentrations not given); apparent; 300 Hz; immobilised aptamer; whether own (Figure A2) or literature value not explicit.

As to `N[C@@H](Cc1ccccc1)C(=O)O`, the binding constant was determined as 12 µM in assay [1] and 400 µM in assay [2].
